The source of these data is patent publication US8765723B2, “Analogues of cilostazol” (CoNCERT Pharmaceuticals Inc., priority 2007, dated 2014).

The series in a line: Determination of metabolic stability in human liver microsomes. In kind it is in vitro ADME. The settings on record: for half-life at 1 μM: pH 7.4, read-out: In vitro half-life t1/2 in human liver microsomes; for half-life at 1 μM / In vitro half-life t1/2 in human liver microsomes: 0.5 mg/mL human liver microsomes, 1 μM test compound, 2 mM NADPH, 37° C., 0-30 minutes; for stabilization in comparison to undeuterated counterpart (in words): repeated experiment, Table 4, vs cilostazol (106, 100) or dehydrocilostazol (110). How it is done: Human liver microsomes (20 mg/mL) were obtained from Xenotech, LLC (Lenexa, Kans.). β-nicotinamide adenine dinucleotide phosphate, reduced form (NADPH), magnesium chloride (MgCl2), and dimethyl sulfoxide (DMSO) were purchased from Sigma-Aldrich.
7.5 mM stock solutions of test compounds, as well as cilostazol and 7-ethoxycoumarin (as a positive control) were prepared in DMSO. The 7.5 mM stock solutions were diluted to 50 μM in acetonitrile (ACN). The 20 mg/mL human liver microsomes were diluted to 0.625 mg/mL in 0.1 M potassium phosphate buffer, pH 7.4, containing 3 mM MgCl2. The diluted microsomes were added to wells of a 96-well deep-well polypropylene plate in triplicate. Ten μL of the 50 μM test compound was added to the microsomes and the mixture was pre-warmed for 10 minutes. Reactions were initiated by addition of pre-warmed NADPH solution. The final reaction volume was 0.5 mL and contained 0.5 mg/mL human liver microsomes, 1 μM test compound, and 2 mM NADPH in 0.1 M potassium phosphate buffer, pH 7.4, and 3 mM MgCl2. The reaction mixtures were incubated at 37° C., and 50 μL aliquots were removed at 0, 5, 10, 20, and 30 minutes and added to shallow-well 96-well plates which contained 50 μL of ice-cold ACN with internal standard to stop the reactions. The plates were stored at 4° C. for 20 minutes after which 100 μL of water was added to the wells of the plate before centrifugation to pellet precipitated proteins. Supernatants were transferred to another 96-well plate and analyzed for amounts of parent remaining by LC-MS/MS using an Applied Bio-systems API 4000 mass spectrometer.
The in vitro t1/2s for test compounds were calculated from the slopes of the linear regression of % parent remaining (ln) vs incubation time relationship: in vitro t1/2=0.693/k, where k=−[slope of linear regression of % parent remaining(ln) vs incubation time]. Data analysis was performed using Microsoft Excel Software.
(In general: Liver microsomes are vesicles of endoplasmic reticulum, rich in cytochrome P450 enzymes.)

SMILES strings stand for the structures. Read-outs that look alike come from different tables or passages of the source.

With `O=C1CCc2cc(OCCCCc3nnnn3C3CCCCC3)ccc2N1` [Cilostazol, 6-[4-(1-Cyclohexyl-1H-tetrazol-5-yl)butoxy]-3,4-dihydro-2(1H)-quinolinone], the half-life at 1 μM (first experiment (Table 3)) amounted to 0.78 h. For the same molecule, the “In vitro half-life t1/2 in human liver microsomes” value (repeated experiment (Table 4)) came out at 1.03 h. With `[2H]C1([2H])C(=O)Nc2ccc(OCCCCc3nnnn3C3([2H])C([2H])([2H])C([2H])([2H])C([2H])([2H])C([2H])([2H])C3([2H])[2H])cc2C1([2H])[2H]` [Compound 100, 6-(4-(1-(Cyclohexyl-d11)-1H-tetrazol-5-yl)butoxy)-3,3,4,4-d4-dihydroquinolin-2(1H)-one], the “stabilization in comparison to undeuterated counterpart (in words)” value (shortened to “stabilization in comparison”) was “stabilized”. Where the note is “first experiment (Table 3)”, the “In vitro half-life t1/2 in human liver microsomes” value was determined as 0.695 h. For the setting “previous (first) experiment, Table 3”, the “stabilization in human liver microsomes (in words)” value was “no stabilization”. The “In vitro half-life t1/2 in human liver microsomes” value (repeated experiment (Table 4)) came out at 1.64 h.

Turning to `[2H]C1([2H])CCC(n2nnnc2CCCCOc2ccc3c(c2)C([2H])([2H])C([2H])([2H])C(=O)N3)CC1` [Compound 101, 6-(4-(1-(4,4-d2-Cyclohexyl)-1H-tetrazol-5-yl)butoxy)-3,3,4,4-d4-dihydroquinolin-2(1H)-one], where the note is “first experiment (Table 3)”, the half-life at 1 μM worked out at 0.753 h. On to `[2H]C1([2H])C([2H])([2H])C([2H])([2H])C([2H])(n2nnnc2CCCCOc2ccc3c(c2)CCC(=O)N3)C([2H])([2H])C1([2H])[2H]` [Compound 106, 6-(4-(1-(Cyclohexyl-d11)-1H-tetrazol-5-yl)butoxy)-3,4-dihydroquinolin-2(1H)-one], for which the “stabilization in comparison” value is recorded as “stabilized”. Under “first experiment (Table 3)”, the half-life at 1 μM was 1.32 h. In addition, the “In vitro half-life t1/2 in human liver microsomes” value (repeated experiment (Table 4)) was found to be 1.45 h. With `[2H]C1([2H])CCC(n2nnnc2CCCCOc2ccc3c(c2)CCC(=O)N3)CC1` [Compound 107, 6-(4-(1-(4,4-d2-Cyclohexyl)-1H-tetrazol-5-yl)butoxy)-3,4-dihydroquinolin-2(1H)-one], under “first experiment (Table 3)”, the half-life at 1 μM stood at 0.595 h.

`[2H]C1([2H])C([2H])([2H])C([2H])([2H])C([2H])(n2nnnc2CCCCOc2ccc3[nH]c(=O)ccc3c2)C([2H])([2H])C1([2H])[2H]` [Compound 110]: the “stabilization in comparison” value is “stabilized”. Moreover, the half-life at 1 μM (first experiment (Table 3)) was 1.24 h. Besides, the “In vitro half-life t1/2 in human liver microsomes” value (repeated experiment (Table 4)) is “Stable*”.

As for `[2H]C1([2H])CC(n2nnnc2CCCCOc2ccc3c(c2)CCC(=O)N3)CC([2H])([2H])C1([2H])[2H]` [Compound 112, 6-(4-(1-(3,3,4,4,5,5-d6-Cyclohexyl)-1H-tetrazol-5-yl)butoxy)-3,4-dihydroquinolin-2(1H)-one], the half-life at 1 μM (repeated experiment (Table 4)) turned out to be 1.32 h. For the molecule `[2H]C1([2H])CC(n2nnnc2CCCCOc2ccc3[nH]c(=O)ccc3c2)CC([2H])([2H])C1([2H])[2H]` [Compound 113, 6-(4-(1-(3,3,4,4,5,5-d6-Cyclohexyl)-1H-tetrazol-5-yl)butoxy)-3,4-dihydroquinolin-2(1H)-one], where the note is “repeated experiment (Table 4)”, the half-life at 1 μM was 1.49 h.

As to `O=c1ccc2cc(OCCCCc3nnnn3C3CCCCC3)ccc2[nH]1` [Dehydrocilostazol, reference compound], the half-life at 1 μM (repeated experiment (Table 4)) is 1.31 h.
